The supplement of paper PMC10307832

How the values were obtained:
Test in all cases: relative viability (nuclei count vs DMSO), 5 days (fraction); higher = more cells survive
[1] = compound: Cc1ccc2nc(NCCN)c3ncc(C)n3c2c1 + CC(=O)c1c(C)c2cnc(Nc3ccc(N4CCNCC4)cn3)nc2n(C2CCCC2)c1=O [Palbociclib] (partner 0.5 µM)
Method in brief: (§1)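 A single step with final 0.05% Triton X-100, 1% formaldehyde and 1 ug/ml Hoechst fixed the cells and stained nuclei 5 days after treatment. Lung cancer cell lines in 1536-well plates had been treated by pin tool the day after seeding with one drug alone or a fixed anchor-drug dose plus five library-drug doses (not always all listed) in √10 steps, and nuclei were counted on 4× images. Relative viability is the ratio of nuclei in treated wells to nuclei in vehicle wells, taken as the median of duplicate plates.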

[2] = compound: Cc1ccc2nc(NCCN)c3ncc(C)n3c2c1 + CC1(C)CCC(c2ccc(Cl)cc2)=C(CN2CCN(c3ccc(C(=O)NS(=O)(=O)c4ccc(N[C@H](CCN5CCOCC5)CSc5ccccc5)c(S(=O)(=O)C(F)(F)F)c4)cc3)CC2)C1 [Navitoclax] (partner 0.5 µM)
Method in brief: as §1

Salubrinal + Crizotinib = compound: O=C(/C=C/c1ccccc1)NC(NC(=S)Nc1cccc2cccnc12)C(Cl)(Cl)Cl [Salubrinal] + C[C@@H](Oc1cc(-c2cnn(C3CCNCC3)c2)cnc1N)c1c(Cl)ccc(F)c1Cl [Crizotinib] (partner 1 µM)
Method in brief: as §1

Salubrinal + Linsitinib = compound: O=C(/C=C/c1ccccc1)NC(NC(=S)Nc1cccc2cccnc12)C(Cl)(Cl)Cl [Salubrinal] + C[C@]1(O)C[C@@H](c2nc(-c3ccc4ccc(-c5ccccc5)nc4c3)c3c(N)nccn32)C1 [Linsitinib] (partner 1 µM)
Method in brief: as §1

Row | Cell Line | relative viability ([1]; first compound 0.04 µM) | relative viability ([1]; first compound 0.1265 µM) | relative viability ([1]; first compound 0.4 µM) | relative viability ([1]; first compound 1.265 µM) | relative viability ([1]; first compound 4 µM) | relative viability ([2]; first compound 0.04 µM) | relative viability ([2]; first compound 0.1265 µM) | relative viability ([2]; first compound 0.4 µM) | relative viability ([2]; first compound 1.265 µM) | relative viability ([2]; first compound 4 µM) | relative viability (Salubrinal + Crizotinib; first compound 0.08 µM) | relative viability (Salubrinal + Crizotinib; first compound 0.253 µM) | relative viability (Salubrinal + Crizotinib; first compound 0.8 µM) | relative viability (Salubrinal + Crizotinib; first compound 2.53 µM) | relative viability (Salubrinal + Crizotinib; first compound 8 µM) | relative viability (Salubrinal + Linsitinib; first compound 0.08 µM) | relative viability (Salubrinal + Linsitinib; first compound 0.253 µM) | relative viability (Salubrinal + Linsitinib; first compound 0.8 µM) | relative viability (Salubrinal + Linsitinib; first compound 2.53 µM) | relative viability (Salubrinal + Linsitinib; first compound 8 µM)
1 | NCI-H3122 | 0.167 | 0.193 | 0.163 | 0.199 | 0.213 | 1.03 | 1.03 | 1.06 | 1 | 1.1 | 0.285 | 0.277 | 0.255 | 0.295 | 0.276 | 1.07 | 1.06 | 0.984 | 1.06 | 0.987
2 | PC-3 [JPC-3] | 0.56 | 0.56 | 0.552 | 0.513 | 0.512 | 0.826 | 0.767 | 0.848 | 0.786 | 0.827 | 1.08 | 0.679 | 1.11 | 0.976 | 0.997 | 0.927 | 0.999 | 0.982 | 0.928 | 0.937
3 | PC-14 | 0.447 | 0.488 | 0.475 | 0.386 | 0.244 | 0.985 | 1.02 | 0.993 | 0.908 | 0.856 | 0.927 | 0.853 | 0.935 | 0.885 | 0.914 | 1.02 | 0.899 | 1.06 | 0.975 | 0.892
4 | RERF-LC-KJ | 0.969 | 1 | 1.14 | 1.08 | 0.881 | 0.881 | 0.821 | 1.02 | 0.65 | 0.726 | 0.81 | 0.718 | 0.803 | 0.806 | 0.887 | 0.896 | 0.806 | 0.931 | 0.791 | 0.846
5 | SK-LU-1 | 0.412 | 0.383 | 0.385 | 0.393 | 0.38 | 1.02 | 0.898 | 0.812 | 0.769 | 0.778 | 1.23 | 0.717 | 1.1 | 0.938 | 0.841 | 1.26 | 1.19 | 1.37 | 1.02 | 1.16
6 | SK-MES-1 | 0.341 | 0.298 | 0.351 | 0.341 | 0.326 | 1.26 | 1.33 | 1.14 | 1.13 | 1.17 | 1.05 | 1 | 1 | 1.02 | 0.908 | 1.12 | 1.04 | 1.05 | 1.07 | 1.08
7 | SW 1573 | 0.396 | 0.461 | 0.399 | 0.428 | 0.134 | 1.07 | 0.938 | 1.16 | 1.1 | 0.689 | 0.653 | 0.747 | 0.866 | 0.781 | 0.898 | 0.903 | 0.759 | 0.718 | 0.792 | 0.844
